From article PMC9964746, “Mechanism of Action and Structure–Activity Relationships of Tetracyclic Small Molecules Acting as Universal Positive Allosteric Modulators of the Cholecystokinin Receptor” (Membranes, 2023)
“And” between values parts separate entries of the source, which are not always exact repeats. Identical values can stand only once.

Experiments:
Format in all cases: cell-based
[1] = target: T1, CCK1R (Homo sapiens, UniProt P32238); assay: IP-One accumulation TR-FRET assay, PAM format, HEK-293 CCK1R cells; design: expressed in transfected cells; host or cells: HEK-293; conditions: for Emax: HEK293, relative to CCK control; for Emax / CCK1R PAM (IP-One) Score (activity score = normalized Emax × pEC50) / EC50: HEK-293 CCK1R cells; for Emax / CCK1R PAM (IP-One) Score (activity score = normalized Emax × pEC50): PAM format; for Emax / EC50: average ± SD; for EC50: PAM format with EC20 CCK; for CCK1R IP-One activity (in words): PAM and agonist formats
T1 sequence (P32238 1-428): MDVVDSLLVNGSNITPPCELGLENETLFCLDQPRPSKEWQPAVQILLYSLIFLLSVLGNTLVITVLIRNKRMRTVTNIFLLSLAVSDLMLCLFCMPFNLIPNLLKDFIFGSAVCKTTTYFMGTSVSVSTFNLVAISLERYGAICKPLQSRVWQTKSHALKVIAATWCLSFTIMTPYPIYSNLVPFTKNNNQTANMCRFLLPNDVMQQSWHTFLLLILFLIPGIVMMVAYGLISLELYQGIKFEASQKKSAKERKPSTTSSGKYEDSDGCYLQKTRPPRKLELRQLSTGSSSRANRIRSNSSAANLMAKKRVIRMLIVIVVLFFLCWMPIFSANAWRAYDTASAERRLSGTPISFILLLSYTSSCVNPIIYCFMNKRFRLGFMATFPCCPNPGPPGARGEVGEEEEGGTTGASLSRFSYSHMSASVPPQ
Procedure: (§1) For structure–activity relationship studies, we performed myo-inositol-1-phosphate (IP-One) accumulation assays with TR-FRET technology applied to the HEK-293 cell line overexpressing CCK1Rs, as we had described in our high throughput screening effort. In brief, thawed cryopreserved cell stocks were re-suspended in IP-One assay media consisting of phenol-red free DMEM (Corning, Corning, NY, USA, #17-205-CV) with 10% FBS, 1% penicillin (10,000 units)/streptomycin (10 mg) (Pen/Strep, Thermo Fisher Scientific, Waltham, MA, USA, Gibco #15140122), and 1% L-glutamine (200 mM) (Gibco #25030081) and diluted to required cell densities. Then, the cell suspension was dispensed into a 1536-well tissue culture microplate (Corning, #3727), and the plate was incubated overnight at 37 °C and 5% CO^2. After 16–20 h, DMSO or compounds were added with an Echo liquid handler (Labcyte, San Jose, CA, USA), resulting in a top final compound concentration of 50 µM diluted 2-fold for 16-point dose–responses. For the positive allosteric modulator (PAM) format, orthosteric stimulator (CCK) dilutions for control wells were prepared in assay media containing 150 mM lithium chloride (LiCl, 50 mM final, Sigma-Aldrich, St Louis, MO, USA, #L7026). After a 30 min incubation of test compounds at 37 °C and 5% CO2, orthosteric stimulator dilutions (for PAM format) or equivalent dilutions of DMSO (for agonist format) were added to designated wells using BioRaptr (Beckman Coulter, Brea, CA, USA). In addition, CCK control ligand dilutions were included on each test plate. After that, the plate was incubated for 1 h at 37 °C and 5% CO^2 and equilibrated to room temperature. Detection reagents from the IP-One Gq detection kit from Cisbio (Cisbio US Inc., Bedford, MA, USA, #62IPAPEJ) were added, and after 1 h at RT, IP-One content was measured with a PHERAstar FSX microplate reader (BMG Labtech, Ortenberg, Germany). Control ligand dose–responses were analyzed using GraphPad Prism 9.3.1 (San Diego, CA, USA) to validate adequate control and test well concentrations for positive allosteric modulation (PAM) and agonist formats. Dose–response curves were performed as 16-point 2-fold dilutions in duplicates in at least three independent experiments. Large data sets were uploaded and analyzed with CBIS (Chemical and Biology Information System software, ChemInnovation Software, Inc., San Diego, CA, USA). Further data analysis for detailed SAR studies was conducted using the D360 software (Certara).
(§2) The potency and efficacy data for these compounds were used to calculate their activity scores using the following formula: Activity Score = normalized Emax × pEC50. Normalized Emax represents the efficacy of the compound as a fractional response relative to that of the CCK control ligand. pEC50 represents the positive logarithmic value of compound EC50 concentrations in (M).

[2] = target: T1, CCK1R; assay: IP-One accumulation TR-FRET assay, agonist format, HEK-293 CCK1R cells; design: expressed in transfected cells; host or cells: HEK-293; conditions: for Emax: HEK293, relative to CCK control, read-out: CCK1R Ago (IP-One) Emax; for Emax / EC50: average ± SD; for EC50: read-out: CCK1R Ago (IP-One) EC50
Procedure: as §1, §2

[3] = target: T2, vasopressin-2 receptor (AVP2R) (Homo sapiens, UniProt P30518); assay: AVP2R cAMP HTRF accumulation assay; conditions: for AVP2R PAM (cAMP) Score (activity score = normalized Emax × pEC50) / EC50 / Emax: CHO-K1 AVP2R cells; for EC50 / Emax: PAM format with vasopressin, original hits: agonist and PAM data combined, average ± SD
T2 construct: expressed in transfected cells; host or cells: CHO-K1 (PAM format); HEK-293 (agonist format)
Procedure: Possible off-target biological effects. […] Here, we tested them at the vasopressin-2 receptor (AVP2R), representing a class A GPCR structurally related to CCK1R, which is coupled to Gs. The activity at AVP2R was tested using AVP2R-overexpressing CHO-K1 (PAM format) or HEK-293 (agonist format) cells, stimulating the cells with vasopressin. Original hits were tested in both agonist and PAM formats. Since all recognized compound responses were present in both formats, we continued to screen analogs in only the PAM format (also able to capture agonist effects) in CHO-K1 AVP2R cells for potential enhanced sensitivity. The dose–response data sets for original hits were combined, as the PAM and agonist effects were indistinguishable. In brief, arginine vasopressin (AVP) orthosteric stimulator dilutions and ligand and compound dose–response titrations in DMSO were transferred onto a 1536-well plate (Corning #3725) using an Echo liquid handler (Labcyte). Thawed cryopreserved cell stocks were diluted in stimulation buffer consisting of HBSS (Hank’s Balanced Salt Solution with Ca^2+ and Mg^2+, Gibco #24020117), 5 mM HEPES (hydroxyethyl piperazineethanesulfonic acid), 0.5 mM IBMX (3-isobutyl-1-methylxanthine, Sigma-Aldrich), and 0.075% BSA (7.5% DTPA-purified bovine serum albumin, PerkinElmer). The resulting cell suspension was added to the microplate and incubated with test compounds at room temperature for 30 min. Then, the detection reagents from the Cisbio cAMP Gs Dynamic HTRF detection kit were added. The plate was kept at room temperature for 30 min and read on a PHERAstar FSX microplate reader. Dose–response curves were performed as 16-point 2-fold dilutions in duplicate in at least two independent experiments.

T2 sequence (P30518 whole entry): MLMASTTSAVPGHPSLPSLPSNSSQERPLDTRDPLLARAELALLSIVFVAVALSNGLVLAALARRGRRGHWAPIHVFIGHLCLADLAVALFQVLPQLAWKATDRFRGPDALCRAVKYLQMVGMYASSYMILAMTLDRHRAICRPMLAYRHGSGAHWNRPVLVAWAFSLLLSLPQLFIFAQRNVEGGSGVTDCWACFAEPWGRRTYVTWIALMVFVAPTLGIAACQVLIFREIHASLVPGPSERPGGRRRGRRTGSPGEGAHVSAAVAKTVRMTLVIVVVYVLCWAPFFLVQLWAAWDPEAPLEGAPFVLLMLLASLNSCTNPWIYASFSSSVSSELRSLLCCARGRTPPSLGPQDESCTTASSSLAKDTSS

Emax [1] [%]	CCK1R PAM (IP-One) Score (activity score = normalized Emax × pEC50) [1]	EC50 [1] [µM]	CCK1R Ago (IP-One) Score (activity score = normalized Emax × pEC50) [2]	AVP2R PAM (cAMP) Score (activity score = normalized Emax × pEC50) ([3]; PAM format)	EC50 [3] [µM]	Emax [3] [%]	Emax [2] [%]	EC50 [2] [µM]	Log(Rmax/R50) ([1]; CCK1R IP-One PAM assay)	Compound	CCK1R IP-One activity (in words) [1]	AVP2R cAMP response (in words) ([3]; PAM format)
39 ± 11	1.9 and 1.87	12.2 ± 4.6	2.76	2.9 and 2.92	2.7 ± 0.7	52 ± 4	60 ± 4.5	26.9 ± 1.1		NCCNc1ncnc2c1sc1nc(N3CCCCC3)c3c(c12)CCCC3 [CMP-22]		
0	0		0	0		0	0			CCCCNc1ncnc2c1sc1nc(N3CCOCC3)c3c(c12)CCCC3 [CMP-48]	None of these analogs showed any CCK1R activity	
41 ± 34	1.52	23.9 ± 25.8	0	1.67	9.3 ± 11.1	33 ± 26				CCCCc1nc2sc3c(NCCN4CCOCC4)ncnc3c2c2c1CCCC2 [CMP-32]		
62 ± 33	2.71	14.4 ± 1.5	0	1.2	12.8 ± 14	24.5 ± 7.1	0			CN(C)CCNc1ncnc2c1sc1nc(N3CCOCC3)c3c(c12)CCCC3 [CMP-4]		
53 ± 1	2.34	37.8 ± 3.9	0	2.3 and 2.31	15.7 ± 8.4	48 ± 12				CCCc1nc2sc3c(NCCN4CCOCC4)ncnc3c2c2c1CCCC2 [CMP-8]		

Continued, compound first:

Compound	Emax [1] [%]	CCK1R PAM (IP-One) Score (activity score = normalized Emax × pEC50) [1]	EC50 [1] [µM]	CCK1R Ago (IP-One) Score (activity score = normalized Emax × pEC50) [2]	AVP2R PAM (cAMP) Score (activity score = normalized Emax × pEC50) ([3]; PAM format)	EC50 [3] [µM]	Emax [3] [%]	Emax [2] [%]	EC50 [2] [µM]	Log(Rmax/R50) ([1]; CCK1R IP-One PAM assay)	CCK1R IP-One activity (in words) [1]	AVP2R cAMP response (in words) ([3]; PAM format)
CCCc1nc2oc3c(N4CCN(CCO)CC4)ncnc3c2c2c1CCCC2 [CMP-30]	36 ± 16	1.55	27.1 ± 10.7	0	1.52	5.9 ± 3.8	29					
CCCc1nc2sc3c(NCCCN(C)C)ncnc3c2c2c1CCCC2 [CMP-18]	43 ± 21	2.0 and 1.96	12.7 ± 5.5	0	2.0 and 1.99	11.8 ± 14	40 ± 17					
CCOC(=O)N1CCN(c2ncnc3c2oc2nc(CC(C)C)c4c(c23)CCCC4)CC1 [CMP-55]	0	0		0	0		0	0				
CCN(CC)CCNc1ncnc2c1sc1nc(-c3ccccc3)c3c(c12)CCCC3 [CMP-11]	45 ± 6	2.3 and 2.27	9.1 ± 4.8	1.0 and 0.96	2.4 and 2.44	3.2 ± 1.1	44 ± 8	21 ± 2	27.1 ± 15.3			
O=C(CSc1ncnc2c1sc1nc(N3CCOCC3)c3c(c12)CCCC3)Nc1ccc(Br)cc1 [CMP-41]	0	0		0	0		0	0				
COc1ccc(NC(=O)CSc2ncnc3c2sc2nc(N4CCOCC4)c4c(c23)CCCC4)cc1 [CMP-40]	0	0		0	5.33	2.9 ± 0.1	96 ± 9	0				strong activation of AVP2R-mediated cAMP accumulation
CC(Sc1ncnc2c1sc1nc(N3CCOCC3)c3c(c12)CCCC3)C(=O)O (stereo not drawn) [CMP-59]				0	0.93	22.3 ± 7.2	20	0			displayed no effects	
CN(C)CCNc1nnnc2c1sc1nc(N3CCCCC3)c3c(c12)CCCC3 [CMP-27]	38 ± 14	1.7	18.4 ± 8.1	0	3.5 and 3.51	9.1 ± 1	70 ± 4	0				
CCCc1nc2sc3c(NCCN(CC)CC)ncnc3c2c2c1CCCC2 [CMP-7]	48 ± 11	2.4 and 2.39	8 ± 2.1	0	1.6 and 1.61	6.5 ± 4.2	31 ± 2					
CC(C)Cc1nc2oc3c(NCCCN(C)C)ncnc3c2c2c1CCC2 [CMP-13]	52 ± 36	2.2 and 2.23	11.2 ± 4.2	0	1.4 and 1.35	12.6 ± 7.9	28 ± 14					
CCCc1nc2sc3c(SC)ncnc3c2c2c1CCCC2 [CMP-38]	20 ± 7.6	1.0 and 1.01	7.6 ± 3.3	0	0		0	0		4.4		
